Values after ≈ are worked out from the molar mass of the structure shown.
Assays:
Type in all cases: cell-based, Pseudomonas aeruginosa
[1] = system: MB 5919 (OprD+, efflux+)
[2] = system: MB 9861 (MB 5919 Trans pFIp-Vim1 plasmid, efflux+)
[3] = system: MB 5919 Trans pFIp-Vim2 plasd (efflux+)
[4] = system: MB 9862 (MB 5890 Trans pFIp-Vim1, efflux-)
[5] = system: MB 9799 (MB 5890 Trans IMP1 plasmid, efflux-); details: CL 5673 (IMP-1) plasmid
[6] = system: MB 5890 Trans pFIp-Vim2 plasd (efflux-)
[7] = system: MB 5890 (OprD+, efflux-)

Row | SMILES | MIC [1] [µg/mL] | MIC [2] [µg/mL] | MIC [3] [µg/mL] | MIC [4] [µg/mL] | MIC [5] [µg/mL] | MIC [6] [µg/mL] | MIC [7] [µg/mL]
1 | C[C@@H](O)[C@H]1C(=O)N2C(C(=O)O)=C(S[C@@H]3CN[C@H](C(=O)N(C)C)C3)[C@H](C)[C@H]12 [Meropenem, meropenem] | 2 (≈ 5.22 µM) | >64 | >64 | 64 (≈ 167 µM) | 64 (≈ 167 µM) | 32 (≈ 83.4 µM) | 0.5 (≈ 1.3 µM)
2 | CCN1CCN(C(=O)N[C@@H](C(=O)N[C@@H]2C(=O)N3[C@@H]2SC(C)(C)[C@@H]3C(=O)O)c2ccccc2)C(=O)C1=O [Pipercillin, piperacillin] | 2 (≈ 3.86 µM) | >256 | >256 | 128 (≈ 247 µM) | 4 (≈ 7.73 µM) | 128 (≈ 247 µM) | 1 (≈ 1.93 µM)
